Source: patent EP0523873A1, “Non-substrate peptide inhibitors of farnesyl protein transferase” (MERCK & CO. INC., priority 1991, dated 1993)
Like-named read-outs stand apart in the source and are kept apart here. Square brackets hold non-standard residues; d marks the D form. Peptide text beside a SMILES is read from it. Phe(4-F) = N[C@@H](Cc1ccc(F)cc1)C(=O)O

How the values were obtained:
[1] = molecular target: farnesyl-protein transferase (bovine brain) (Bos taurus, UniProt P29702+P49355); conditions: read-out: KM for FPP; 30°C, 50 mM HEPES, pH 7.5, 5 mM MgCl2, 5 mM dithiothreitol
Method: (§1) Polyisoprenylation of Ras- [³H]Farnesyldiphosphate (FPP) (20 Ci/mmol) was purchased from New England Nuclear. Farnesyl-protein transferase activity assays were carried out as 30°C unless noted otherwise. […] After thermally pre-equilibrating the assay mixture in the absence of enzyme, reactions were initiated by the addition of farnesyl-protein transferase and stopped at timed intervals by the addition of 1 M HCl in ethanol (1 mL). The quenched reactions were allowed to stand for 15 minutes (to complete the precipitation process). After adding 2 mL of 100% ethanol, the reactions were vacuum-filtered through Whatman GF/C filters. Filters were washed four times with 2 mL aliquots of 100% ethanol, mixed with scintillation fluid (10 mL) and then counted in a Beckman LS3801 scintillation counter.
(§2) For inhibition studies, assays were run as described above, except putative inhibitors were added at the concentrations indicated. IC₅₀ values were determined with both farnesyl-protein transferase substrates at their KM concentrations.
Farnesyl-protein transferase was prepared from bovine brain. All purification steps were performed at 4°C. Cerebral lobes from bovine brains were homogenized in lysis buffer containing 50 mM. Tris-Cl, pH 8.0, 1 mM EGTA, 1 mM MgCl₂, 5 mM dithiothreitol, 10 µg/mL aprotinin, 0.5 mM phenylmethyl sulfonyl fluoride (PMSF), 2 µg/mL anitpain and 2 µg/mL leupeptin. […]

[2] = molecular target: T1, Farnesyl-protein transferase from bovine brain (partially purified) (Bos taurus, UniProt P29702+P49355); test: Inhibition of Ras farnesylation in vitro by tetrapeptides; format: biochemical
T1 construct: Farnesyl-protein transferase was prepared from bovine brain; from tissue; host or cells: bovine brain (cerebral lobes); Ras substrate expressed in E. coli
Method: as §1, §2
Farnesyl-protein transferase was prepared from bovine brain. All purification steps were performed at 4°C. Cerebral lobes from bovine brains were homogenized in lysis buffer containing 50 mM. Tris-Cl, pH 8.0, 1 mM EGTA, 1 mM MgCl₂, 5 mM dithiothreitol, 10 µg/mL aprotinin, 0.5 mM phenylmethyl sulfonyl fluoride (PMSF), 2 µg/mL anitpain and 2 µg/mL leupeptin. Cellular debris and membranes were removed by centrifugation (10,000 g for 20 minutes followed by 100,000 g for 30 minutes). The supernatant was loaded directly onto a column (30 cm x 20 cm²) [formula] of DEAE-Sephacel that had been equilibrated with lysis buffer. The column was washed with the same buffer and proteins were eluted with a linear gradient of NaCL (0-500 mM, 1 L + 1 L) [formula] in the same buffer. Fractions (20 mL) were collected and those containing farnesyl-protein transferase activity were pooled. Each pool was then applied to an ω-Aminooctyl agarose column (30 cm x 4.9 cm²) [formula] and eluted with a linear gradient of NaCl (0-500 mM, 500 mL + 500 mL) [formula] in lysis buffer. Fractions containing farnesylprotein transferase were pooled. For most assays further partial purifiation was achieved by HPLC using a Mono Q H.R. 10/10 column and eluting farnesyl-protein transferase activity with a 0-0.3 M NaCl gradient over 85 minutes at 2 ml/min.
Farnesyl-protein transferase from bovine brain was chromatographed on DEAE-Sephacel (Pharmacia, 0-0.8 M NaCl gradient elution), N-octyl agarose (Sigma, 0-0.6 M NaCl gradient elution), and a Mono Q HPLC column (Pharmacia, 0.0.3M NaCl gradient). […] Data presented in the Table 2 are the average of 2-5 determinations. Single capital letter amino acid abbreviations are used above.

[3] = system: partially pure bovine brain farnesyl-protein transferase; test: Tetrapeptides tested as farnesylation substrates with [3H]FPP (TLC / autoradiography); format: biochemical; conditions: peptide 200 µM, 0.5 µM [3H]-FPP, 30 minutes at 30°C
From the text: (§3) When a peptide was used as the acceptor substrate, there were two changes to the assay: (1) Ras protein was excluded and, (2) the reactions were stopped by the addition of one tenth volume of 0.5 M EDTA. A portion of the reaction mixture was spotted onto a TLC plate (silica gel 60 thin layer chromatography plates (20 cm x 20 cm, 0.25 mm layer thickness) [formula] were from E. Merck (Darrnstadt)) and eluted with either ethyl acetate:pyridine:acetic acid:water (10:5:1:3) or n-propanol:water (7:3) elution systems. After drying under vacuum, the plates were sprayed with En³Hance and exposed to X-ray film at -70°C.
CAAX tetrapeptides and other tetrapeptides including Cys-Xaa¹-Xaa²-Xaa³ were tested as farnesylation substrates using [³H]FPP and partially pure bovine brain farnesyl-protein transferase.
The indicated peptides at 200 µM were incubated with partially pure bovine farnesyl-protein transferase and 0.5 µM [3H]-FPP for 30 minutes at 30°C. Autoradiographic exposure time was overnight (15-20 hours).

[4] = system: farnesyl-protein transferase; test: Mechanism of inhibition using homogenous, pure farnesyl-protein transferase; format: biochemical, bovine
Method: To prepare pure enzyme, the […], […], was covalently bound to Affigel-10 under anhydrous conditions as described by the manufacture (15 µmol peptide per 1 mL of Affigel-10). Unreacted resin was treated with ethanolamine. After multiple passes of ω-aminooctyl-agarose-column-purified protein over the peptide column, the column was washed and eluted as described by Reiss, et al., (1990) ibid, to recover farnesyl-protein transferase activity.
To further verify that Cys-Xaa¹-Xaa²-Xaa³ were interacting with the active site of farnesyl-protein transfer, CIFM (SEQ ID NO: 2) was evaluated for its mechanism of inhibition using homogenous, pure farnesyl-protein transferase.

[5] = system: farnesyl-protein transferase; test: Tetrapeptides tested as farnesylation substrates ([3H]FPP, TLC and autoradiography); format: biochemical; conditions: [³H]FPP, partially pure bovine brain farnesyl-protein transferase, TLC, autoradiography
From the text: as §3
CAAX tetrapeptides and other tetrapeptides including Cys-Xaa¹-Xaa²-Xaa³ were tested as farnesylation substrates using [³H]FPP and partially pure bovine brain farnesyl-protein transferase. […] Thin layer chromatography (TLC) conditions were developed which resolved the substrates farnesyl diphosphate (Rf = 0.06) [formula] and CVLS (Rf = 0.28) [formula] and product S-farnesyl-CVLS (Rf = 0.58) [formula] . These Rf values reflect TLC conditions using ethylacetate: pyridine:acetic acid:water (10:5:1:3) as the elutent. […] Control peptides having a Cys to Ser substitution were not substrates. […]

[6] = system: farnesyl-protein transferase; conditions: earlier findings (Schaber et al., ibid); cited from earlier work
[7] = Ras-CVLS at 3.5 µM, 0.25 µM [3H]FPP (both substrates at KM), average of 2-5 determinations, read-out: IC50

Compound	IC50 [2, 7] [µM]	Farnesylation Substrate [3]	also measured
CC(C)=CCC/C(C)=C/CC/C(C)=C/CO[P@@](=O)(O)OP(=O)(O)O (stereo in doubt) [FPP, farnesyl diphosphate]			Km [1]: 0.25 µM
CC[C@H](C)[C@H](NC(=O)[C@H](C)NC(=O)[C@@H](N)CS)C(=O)N[C@@H](CCSC)C(=O)O [CAIM] (H-CAIM-OH)	0.2	+ (+ > 90% [3H] farnesyl diphosphate converted to [3H] farnesyl tetrapeptide)	
CC[C@H](C)[C@H](NC(=O)[C@H](C)NC(=O)[C@@H](N)CS)C(=O)N[C@@H](CO)C(=O)O [CAIS] (H-CAIS-OH)	1	+ (+ > 90% [3H] farnesyl diphosphate converted to [3H] farnesyl tetrapeptide)	
CC[C@H](C)[C@H](NC(=O)[C@@H](N)CS)C(=O)N[C@@H](Cc1ccc(F)cc1)C(=O)N[C@@H](CCSC)C(=O)O [CI(p-fluoro-F)M] (H-CI[Phe(4-F)]M-OH)	0.01	- (- < 1% conversion)	
CC[C@H](C)[C@H](NC(=O)[C@@H](N)CS)C(=O)N[C@@H](Cc1ccccc1)C(=O)N[C@@H](CCSC)C(=O)O [CIFM, Cys-Ile-Phe-Met] (H-CIFM-OH)	0.01	- (- < 1% conversion)	mechanism of inhibition with respect to Ras protein substrate [4]: competitive inhibitor; mechanism of inhibition with respect to farnesyl diphosphate [4]: not a competitive inhibitor; farnesylation substrate activity [5]: do not serve as effective substrates
CC[C@H](C)[C@H](NC(=O)[C@@H](N)CS)C(=O)N[C@@H](Cc1ccccc1)C(=O)N[C@@H](CCC(N)=O)C(=O)O [CIFQ, Cys-Ile-Phe-Gln] (H-CIFQ-OH)	0.023	- (- < 1% conversion)	
CSCC[C@H](NC(=O)[C@H](Cc1ccccc1)NC(=O)[C@@H](NC(=O)[C@@H](N)CS)C(C)C)C(=O)O [CVFM, Cys-Val-Phe-Met]		- (- < 1% conversion)	
CC[C@H](C)[C@H](NC(=O)[C@@H](NC(=O)[C@@H](N)CS)C(C)C)C(=O)N[C@@H](CCSC)C(=O)O [CVIM] (H-CVIM-OH)		+ (+ > 90% [3H] farnesyl diphosphate converted to [3H] farnesyl tetrapeptide)	IC50 [2]: 0.1 µM
CC[C@H](C)[C@H](NC(=O)[C@H](Cc1ccc(O)cc1)NC(=O)[C@@H](N)CS)C(=O)N[C@@H](CCSC)C(=O)O [CYIM] (H-CYIM-OH)	0.1	+ (+ > 90% [3H] farnesyl diphosphate converted to [3H] farnesyl tetrapeptide)	
CC(C)C[C@H](NC(=O)[C@@H](NC(=O)[C@@H](N)CO)C(C)C)C(=O)N[C@@H](CO)C(=O)O [SVLS] (H-SVLS-OH)		- (- < 1% conversion)	
SSGCVLS [heptapeptide SSGCVLS, earlier found to serve as a substrate for isoprenylation]			substrate for isoprenylation [6]: served as a substrate for isoprenylation
